Reference: patent publication US6291432A (Japan Energy Corporation, priority 1996, dated 2001)
Values after ≈ are worked out from the molar mass of the structure shown.

Experiments:
[1] = biological target: T1, recombinant HIV-1 protease (Human immunodeficiency virus type 1 group M subtype B, UniProt P04585); assay: HIV protease inhibition activity (enzyme activity inhibition rate); type: biochemical; conditions: 50 nM final concentration of test compound; 60 min at 37° C.; read-out: Enzyme activity inhibition rate (%) (addition concentration of 50 nM)
T1 construct: measured using a recombinant HIV-1 protease
Method: The protease activity was measured using a recombinant HIV-1 protease (see Biochemistry, 250 (9)-264 (1990)) and a synthesized peptide substrate. The inhibition rate was calculated by determining a peptide fragment generated by cleavage between Tyr-Pro of the synthesized substrate after the reaction of 60 min at 37° C. using a reversed phase HPLC in the presence of the test compounds in various concentrations (see, for example, Japanese Patent Application Laid-open No. 170722/1993).
Examples of the evaluation results of the HIV protease inhibition activity of the tripeptide compound of the present invention by the above-described method is shown in Table 1. […] The concentration of the test compounds in Table 1 represents the final concentration in the reaction mixture.

[2] = system: CEM-SS cell; assay: Cytotoxicity in HIV virus non-infected CEM-SS cells (XTT method); type: cell-based; conditions: six days, highest concentration 1.0 μg/ml
Method: (§1) EP 0751145 A2). On a 96-well micro titre plate, the test compounds were added to the culture medium in various concentrations, then the HIV infected CEM-SS cell was added and incubated for six days at 37° C. using a CO2 incubator. The number of the living cells was then measured by a XTT method. On the other hand, in order to examine the cytotoxicity of the test compounds, the test compounds were added in various concentrations and the HIV virus non-infected cell was incubated under similar conditions. As the reference group, the HIV infected CEM-SS cell was incubated without the addition of the test compounds. Moreover, the HIV virus non-infected cell was incubated without the addition of the test compound as the control group. The anti-virus activity was evaluated in a concentration in which the cytotoxic effect caused by the HIV infected virus in the above HIV infected cell group was inhibited 50 percent (EC50, 50% effective concentration), and the cytotoxicity was evaluated in a concentration in which the cytotoxic effect by the addition of the test compound in the HIV virus non-infected cell group occurred at 50 percent (TC50, 50% cytotoxic concentration) respectively.

[3] = Pharmacokinetics test (digestive tract absorption and metabolic characteristics) in rats; type: in vivo; conditions: 10 mg/kg; for F (biological utilization rate of administration in the duodenum): Id versus Iv; for MRT / T1/2 (λ): Iv; for T1/2 (λ): final phase half-life
Method: The metabolic characteristics of the tripeptide compound of the present invention were evaluated using rats for a test animal. As the Control Example, the result of KNI-272 ((R)-N-tert-butyl-3-{(2S,3S)-2-hydroxy-3-[N-(isoquinolin-5-yloxy)acetyl-me thylthio-L-alanyl]amino-4-phenylbutanoyl}-1,3-thiazolidine-4-carboxamide; iQoa-Mta-Apns-Thz-NHtBu) which is a tripeptide derivative known in the art, is also shown. The amount administred was 10 mg/kg. The evaluated administration methods are a method (id) of administering a solution of a fixed amount of the test compound in the duodenum of a test animal, and a method (iv) of administering the solution intravenously. After administration, blood samples were taken from the test animal and concentrations of the residual test compound in the plasma were analyzed. As indices concerning pharmacokinetics, AUC (area under medicine concentration curve in plasma), MRT (mean residence time), t1/2 (λ) (final phase half-life period), and the biological utilization rate of administration in the duodenum F were calculated.

[4] = biological target: T1, recombinant HIV-1 protease; assay: Evaluation of enzyme inhibition constant Ki; type: biochemical
Method: The synthesized peptide substrate having a sequence of H-Lys-Ala-Arg-Val-Tyr-Phe (4-NO2)-Glu-Ala-Nle-NH2 (SEQ ID NO. 1) was used in this experiment. The enzyme reaction was measured using a reversed phase HPLC by determining the C-terminal peptide fraction produced by cleavage just behind Tyr in the synthesized substrate which is obtained by reacting the following composition for 15 min. at 37° C. and stopping the reaction by the addition of 1N HCl (75 μl).
Composition of reaction mixture
Recombinant HIV-1 protease enzyme solution 10 μl
0.5 mM synthetic substrate aqueous solution 10 μl
DMSO Inhibitor solution 5 μl
0.2 M MES solution 25 μl
(1 M NaCl, 2 mM EDTA-2Na, 2 mM DTT, pH 5.5)
Column: Waters Nova-pak C18 (3.9×75 mm)
Eluent: A; water (0.1% TFA)
B; acetonitrile (0.1% TFA)
Flow rate: 2 ml/min isocratic; 10% B solution
Detection: Fluorescence 305 nm, excitation 275 nm

[5] = system: HIV virus strain HIV-1 IIIB; assay: Anti-HIV activity in HIV infected CEM-SS cells (XTT method); type: cell-based; conditions: Human immunodeficiency virus 1, 144 h, HIV-1 IIIB infected CEM-SS cell, six days at 37° C.
Method: as §1

Compound	inhibition at 0.05 µM [1] [%]	Cytotoxicity TC50 [2] [µg/mL]	AUC ([3]; Id (in the duodenum)) [µg·min/mL]	F (biological utilization rate of administration in the duodenum) [3] [%]	MRT [3] [h]	AUC ([3]; Iv (intravenous)) [µg·min/mL]	T1/2 (λ) [3] [h]	Ki [4] [nM]	EC50 [5] [µg/mL]
COc1cccc2cc(C(=O)N[C@H](C(=O)N[C@@H](Cc3ccccc3)[C@H](O)C(=O)N3CSC(C)(C)[C@H]3C(=O)NCc3ccccc3C)C(C)C)oc12 [Example 16, (R)-N-(2-methylbenzyl)-3-{(2S,3S)-3-[N-(7-methoxybenzofuran-2-carbonyl)-L-valyl]amino-2-hydroxy-4-phenylbutanoyl}-5,5-dimethyl-1,3-thiazolidine-4-carb oxamide]	97.1	> 1.0	90	27	1.12	322	1.23	0.014	0.0017 (≈ 0.00238 µM)
COC(=O)N[C@H](C(=O)N[C@@H](Cc1ccccc1)[C@H](O)C(=O)N1CSC(C)(C)[C@H]1C(=O)NCc1ccccc1C)C(C)C [Example 27, (R)-N-(2-methylbenzyl)-3-{(2S,3S)-2-hydroxy-3-[(S)-2-(methoxycarbonyl)amino-3-methylbutanoyl]amino-4-phenylbutanoyl}-5,5-dimethyl-1,3-thiazolidine-4-c arboxamide]	94.9	> 1.0	87	32	1.18	272	1.45	–	0.026 (≈ 0.0434 µM)
CC[C@H](NC(=O)COc1cccc(N(C)C)c1)C(=O)N[C@@H](Cc1ccccc1)[C@H](O)C(=O)N1CSC(C)(C)[C@H]1C(=O)NC(C)(C)C [Example 36, (R)-N-tert-butyl-3-{(2S,3S)-2-hydroxy-3-[(S)-2-(3-dimethylaminophenoxyacetyl)aminobutanoyl]amino-4-phenylbutanoyl}-5,5-dimethyl-1,3-thiazolidine-4-car boxamide]	95	> 1.0	185	82	2.07	226	1.83	–	0.017 (≈ 0.0259 µM)
CC(C)c1nc(CN(C)C(=O)N[C@H](C(=O)N[C@@H](Cc2ccccc2)C[C@H](O)[C@H](Cc2ccccc2)NC(=O)OCc2cncs2)C(C)C)cs1 [Ritonavir, reference compound]	–	> 1.0	–	–	–	–	–	–	0.033 (≈ 0.0458 µM)
CC(C)[C@H](NC(=O)COc1cccc(N(C)C)c1)C(=O)N[C@@H](Cc1ccccc1)[C@H](O)C(=O)N1CSC(C)(C)[C@H]1C(=O)NC(C)(C)C [Example 35, (R)-N-tert-butyl-3-{(2S,3S)-2-hydroxy-3-[(S)-2-(3-dimethylaminophenoxyacetyl)amino-3-methylbutanoyl]amino-4-phenylbutanoyl}-5,5-dimethyl-1,3-thiazolidine-4-carboxamide]	96	> 1.0	105	89	1.13	119	1.05	0.07	0.01 (≈ 0.0149 µM)
